Consider four molecules from ChEMBL document CHEMBL5034014, “Melanocortin 1 Receptor Agonists Based on a Bivalent, Bicyclic Peptide Framework” (J Med Chem, 2021).

The target of assay [1] is T1, Melanocyte-stimulating hormone receptor (Homo sapiens, UniProt Q01726). Briefly: Displacement of [125I]-NDP-alpha-MSH from human MC1R expressed in HEK2936E cell membrane measured after 16-23 hrs by 1450 microbeta trilux scintillation proximity assay. It is filed as cell membranes. For orientation: Displacement assays read how much labelled ligand stays bound in the presence of the test substance.
T1 sequence (Q01726 whole entry): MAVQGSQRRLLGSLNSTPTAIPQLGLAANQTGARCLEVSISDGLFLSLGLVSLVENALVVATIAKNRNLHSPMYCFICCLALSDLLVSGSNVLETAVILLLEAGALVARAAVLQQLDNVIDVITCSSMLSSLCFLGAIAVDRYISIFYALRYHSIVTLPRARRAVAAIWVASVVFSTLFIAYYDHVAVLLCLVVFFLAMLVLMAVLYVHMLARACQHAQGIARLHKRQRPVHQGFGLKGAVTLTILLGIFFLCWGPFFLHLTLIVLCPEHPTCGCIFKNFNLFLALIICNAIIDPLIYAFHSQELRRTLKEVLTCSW

Assay [2] deals with T2, Melanocortin receptor 4 (Homo sapiens, UniProt P32245). Briefly: Agonist activity at human melanocortin receptor 4 expressed in human T-REx-293 cells using high doxycycline assessed as stimulation of intracellular cAMP accumulation incubated for 45 mins by LANCE cAMP assay. In kind it is functional. On the technique in general: cAMP levels reflect the balance of adenylyl cyclase and phosphodiesterase activity.
T2 sequence (P32245 whole entry): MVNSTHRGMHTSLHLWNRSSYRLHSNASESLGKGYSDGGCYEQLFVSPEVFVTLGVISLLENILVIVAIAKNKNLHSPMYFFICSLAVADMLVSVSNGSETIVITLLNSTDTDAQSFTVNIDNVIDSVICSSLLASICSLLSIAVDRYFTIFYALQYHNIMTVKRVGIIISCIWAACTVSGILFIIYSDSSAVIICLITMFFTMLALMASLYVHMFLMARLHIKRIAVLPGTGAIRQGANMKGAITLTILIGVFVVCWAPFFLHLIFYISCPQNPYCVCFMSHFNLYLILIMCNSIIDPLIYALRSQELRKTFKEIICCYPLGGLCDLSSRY

A further assay addresses Melanocortin receptor 5 (Homo sapiens, UniProt P33032). The assay is described as follows: Displacement of [125I]-NDP-alpha-MSH from human MC5R expressed in HEK2936E cell membrane measured after 16-23 hrs by 1450 microbeta trilux scintillation proximity assay. It is filed as cell membranes.
Assay [3] addresses T2, Melanocortin receptor 4. The assay is described as follows: Agonist activity at human melanocortin receptor 4 expressed in human T-REx-293 cells using low doxycycline assessed as stimulation of intracellular cAMP accumulation incubated for 45 mins by LANCE cAMP assay. In kind it is functional, cell-based.
For assay [4], the target named is T2, Melanocortin receptor 4. Briefly: Displacement of [125I]-NDP-alpha-MSH from human MC4R expressed in HEK2936E cell membrane measured after 16-23 hrs by 1450 microbeta trilux scintillation proximity assay. It is filed as cell membranes.
For assay [5], the target named is T1, Melanocyte-stimulating hormone receptor. The assay is described as follows: Agonist activity at human melanocortin receptor 1 expressed in human T-Rex-293 cells assessed as stimulation of intracellular cAMP accumulation incubated for 45 mins by LANCE cAMP assay. It is filed as functional, cell-based.
Assay [6] concerns the target T3, Melanocortin receptor 3 (Homo sapiens, UniProt P41968). Briefly: Displacement of [125I]-NDP-alpha-MSH from human MC3R expressed in HEK2936E cell membrane measured after 16-23 hrs by 1450 microbeta trilux scintillation proximity assay. It is filed as cell membranes.
The target in assay [7] is T3, Melanocortin receptor 3. The assay is described as follows: Agonist activity at human melanocortin receptor 3 expressed in human T-REx-293 cells assessed as stimulation of intracellular cAMP accumulation incubated for 45 mins by LANCE cAMP assay. In kind it is functional, cell-based.
Assay [8] is filed under the species Homo sapiens. The assay is described as follows: Selectivity index, […] for displacement of [125I]-NDP-alpha-MSH from human MC1R […] for displacement of [125I]-NDP-alpha-MSH from human MC4R by competitive radioligand binding assay.
The species named for assay [9] is Homo sapiens. The assay is described as follows: Selectivity index, […] for displacement of [125I]-NDP-alpha-MSH from human MC1R […] for displacement of [125I]-NDP-alpha-MSH from human MC3R by competitive radioligand binding assay.
The species named for assay [10] is Homo sapiens. The assay is described as follows: Selectivity index, […] for displacement of [125I]-NDP-alpha-MSH from human MC1R […] for displacement of [125I]-NDP-alpha-MSH from human MC5R by competitive radioligand binding assay.

T3 sequence (P41968 whole entry): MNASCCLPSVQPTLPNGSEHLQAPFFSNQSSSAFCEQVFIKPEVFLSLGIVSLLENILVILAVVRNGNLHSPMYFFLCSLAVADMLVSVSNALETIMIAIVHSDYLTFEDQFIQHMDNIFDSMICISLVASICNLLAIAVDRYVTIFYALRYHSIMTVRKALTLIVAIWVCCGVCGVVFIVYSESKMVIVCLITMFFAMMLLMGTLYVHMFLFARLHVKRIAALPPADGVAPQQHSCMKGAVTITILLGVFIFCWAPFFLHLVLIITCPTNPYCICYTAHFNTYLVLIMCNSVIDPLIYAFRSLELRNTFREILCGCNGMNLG
Sequence of Melanocortin receptor 5 (P33032 whole entry): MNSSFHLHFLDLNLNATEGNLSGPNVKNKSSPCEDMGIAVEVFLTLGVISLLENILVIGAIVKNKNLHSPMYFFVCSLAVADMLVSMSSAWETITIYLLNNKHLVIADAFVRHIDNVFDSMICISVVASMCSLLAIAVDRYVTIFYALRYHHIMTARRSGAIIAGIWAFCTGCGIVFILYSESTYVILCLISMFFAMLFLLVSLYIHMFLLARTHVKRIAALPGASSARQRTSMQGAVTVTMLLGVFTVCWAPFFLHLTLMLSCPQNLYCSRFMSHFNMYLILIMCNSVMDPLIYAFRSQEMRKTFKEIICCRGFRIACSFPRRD

On to `CC[C@H](C)[C@@H]1NC(=O)[C@@H]2CCCN2C(=O)[C@H](Cc2c[nH]c3ccccc23)NC(=O)[C@H](CCCNC(=N)N)N(C)C(=O)[C@@H](Cc2ccccc2)NC(=O)[C@H](Cc2c[nH]cn2)NC(=O)[C@H](CC(=O)O)NC(=O)[C@@H]2CSSC[C@H](NC1=O)C(=O)N[C@@H](Cc1c[nH]cn1)C(=O)N[C@H](Cc1ccccc1)C(=O)N(C)[C@@H](CCCNC(=N)N)C(=O)N(C)[C@@H](Cc1c[nH]c3ccccc13)C(=O)N[C@@H](CCCNC(=N)N)C(=O)N2`, for which the values for the Ki (in assay [1]; at Melanocortin receptor 4 [4]; on Melanocortin receptor 3 [6]) were 0.794 nM, 138 nM and 479 nM, respectively. The EC50 (as a rule, the concentration needed to bring the measured effect to its halfway point) at Melanocortin receptor 4 [2] was 1.29 nM; at Melanocortin receptor 4 [3], 22.9 nM; in assay [5] it was 0.11 nM; at Melanocortin receptor 3 [7], 11.2 nM. The IC50 (commonly the point on the concentration scale where inhibition reaches its midpoint) on Melanocortin receptor 5 was 2000 nM.

With `CC[C@H](C)[C@@H]1NC(=O)[C@@H]2CCCN2C(=O)[C@H](Cc2c[nH]c3ccccc23)NC(=O)[C@H](CCCNC(=N)N)N(C)C(=O)[C@@H](Cc2ccccc2)NC(=O)[C@H](Cc2c[nH]cn2)NC(=O)[C@H]([C@@H](C)O)NC(=O)[C@@H]2CSSC[C@H](NC1=O)C(=O)N[C@@H](C)C(=O)N[C@H](Cc1ccccc1)C(=O)N[C@@H](CCCNC(=N)N)C(=O)N[C@@H](Cc1c[nH]c3ccccc13)C(=O)N[C@@H](CCCNC(=N)N)C(=O)N2`, the Ki – broadly, the equilibrium dissociation constant of an inhibitor or competing ligand from its target – in assay [1] was 19.5 nM; on Melanocortin receptor 4 [4] it was 10.2 nM; on Melanocortin receptor 3 [6], 380 nM. Besides, the EC50 on Melanocortin receptor 4 [2] was 0.457 nM; on Melanocortin receptor 4 [3] it was 2.57 nM; in [5] it was 3.63 nM; on Melanocortin receptor 3 [7] it was 20 nM. This molecule had an IC50 at Melanocortin receptor 5 of 162 nM.

For the molecule `CC[C@H](C)[C@@H]1NC(=O)[C@@H]2CCCN2C(=O)[C@H](Cc2c[nH]c3ccccc23)NC(=O)[C@H](CCCNC(=N)N)N(C)C(=O)[C@@H](Cc2ccccc2)NC(=O)[C@H](Cc2c[nH]cn2)NC(=O)[C@H]([C@@H](C)O)NC(=O)[C@@H]2CSSC[C@H](NC1=O)C(=O)N[C@@H](Cc1c[nH]cn1)C(=O)N[C@H](Cc1ccccc1)C(=O)N[C@@H](CCCCN)C(=O)N[C@@H](Cc1c[nH]c3ccccc13)C(=O)N[C@@H](C)C(=O)N2`, the inhibition constant (Ki) in [1] is 11.7 nM; on Melanocortin receptor 4 [4], 72.4 nM; on Melanocortin receptor 3 [6], 708 nM. The EC50 at Melanocortin receptor 4 [2] was 3.16 nM; at Melanocortin receptor 4 [3] it was 52.5 nM; in assay [5] it was 0.832 nM; on Melanocortin receptor 3 [7], 38.9 nM. Also, the IC50 on Melanocortin receptor 5 was 631 nM.

As to `CC[C@H](C)[C@@H]1NC(=O)[C@@H]2CCCN2C(=O)[C@H](Cc2c[nH]c3ccccc23)NC(=O)[C@H](CCCNC(=N)N)N(C)C(=O)[C@@H](Cc2ccccc2)NC(=O)[C@H](Cc2c[nH]cn2)NC(=O)[C@H]([C@@H](C)O)NC(=O)[C@@H]2CSSC[C@H](NC1=O)C(=O)N[C@@H](Cc1c[nH]cn1)C(=O)N[C@H](Cc1ccccc1)C(=O)N(C)[C@@H](CCCNC(=N)N)C(=O)N(C)[C@@H](Cc1c[nH]c3ccccc13)C(=O)N[C@@H](CCCNC(=N)N)C(=O)N2`, the Ratio in the assay listed under Homo sapiens [8] was found to be 30; in the assay listed under Homo sapiens [9], 30; in the assay filed under Homo sapiens [10], 3000. Moreover, the Ki was 0.0692 nM in [1], 30.2 nM at Melanocortin receptor 4 [4] and 51.3 nM at Melanocortin receptor 3 [6]. Besides, the EC50 on Melanocortin receptor 4 [2] was 0.977 nM; at Melanocortin receptor 4 [3] it was 26.3 nM; in [5] it was less than 0.0501 nM; at Melanocortin receptor 3 [7], 1.23 nM. The same molecule had an IC50 on Melanocortin receptor 5 of 166 nM.
